How the values were obtained:
[1] = target: Recombinant human soluble BACE1 catalytic domain (Homo sapiens (Human), UniProt P56817); experiment: BACE1 HTRF FRET Assay; assay type: biochemical; conditions: Ki calculated from IC50 using the Cheng-Prusoff equation; QSY7-APPswe-Eu substrate, pH 5.0; read-out: BACE-1 Ki
Text: Reagents: Na^+-Acetate pH 5.0; 1% Brij-35; Glycerol; Dimethyl Sulfoxide (DMSO); Recombinant human soluble BACE1 catalytic domain (>95% pure); APP Swedish mutant peptide substrate (QSY7-APP^swe-Eu): QSY7-EISEVNLDAEFC-Europium-amide.
A homogeneous time-resolved FRET assay can be used to determine IC50 values for inhibitors of the soluble human BACE1 catalytic domain. This assay monitors the increase of 620 nm fluorescence that resulted from BACE1 cleavage of an APPswedish APP^swe mutant peptide FRET substrate (QSY7-EISEVNLDAEFC-Europium-amide). This substrate contains an N-terminal QSY7 moiety that serves as a quencher of the C-terminal Europium fluorophore (620 nm Em). In the absence of enzyme activity, 620 nm fluorescence is low in the assay and increased linearly over 3 hours in the presence of uninhibited BACE1 enzyme. Inhibition of BACE1 cleavage of the QSY7-APP^swe-Eu substrate by inhibitors is manifested as a suppression of 620 nm fluorescence.
Varying concentrations of inhibitors at 3× the final desired concentration in a volume of 10 ul are preincubated with purified human BACE1 catalytic domain (3 nM in 10 μl) for 30 minutes at 30° C. in reaction buffer containing 20 mM Na-Acetate pH 5.0, 10% glycerol, 0.1% Brij-35 and 7.5% DSMO. Reactions are initiated by addition of 10 μl of 600 nM QSY7-APP^swe-Eu substrate (200 nM final) to give a final reaction volume of 30 μl in a 384 well Nunc HTRF plate. The reactions are incubated at 30° C. for 1.5 hours. The 620 nm fluorescence is then read on a Rubystar HTRF plate reader (BMG Labtechnologies) using a 50 millisecond delay followed by a 400 millisecond acquisition time window. Inhibitor IC50 values are derived from non-linear regression analysis of concentration response curves. Ki values are then calculated from IC50 values using the Cheng-Prusoff equation using a previously determined […] of 8 μM for the QSY7-APP^swe-Eu substrate at BACE1.

[2] = target: purified human autoBACE-2 (Homo sapiens (Human), UniProt Q9Y5Z0); experiment: BACE-2 Assay (BACE-HTRF assay); assay type: biochemical; conditions: Ki calculated from IC50 using the Cheng-Prusoff equation; QSY7-EISEVNLDAEFC-Eu-amide substrate, pH 5.0
Experimental: Inhibitor IC50s at purified human autoBACE-2 are determined in a time-resolved endpoint proteolysis assay that measures hydrolysis of the QSY7-[…]-Eu-amide FRET peptide substrate (BACE-HTRF assay). […] DMSO is present at 5% final concentration in the assay. Following laser excitation of sample wells at 320 nm, the fluorescence signal at 620 nm is collected for 400 ms following a 50 μs delay on a RUBYstar HTRF plate reader (BMG Labtechnologies). Raw RFU data is normalized to maximum (1.0 nM BACE/DMSO) and minimum (no enzyme/DMSO) RFU values. […] The Ki values are calculated from the IC50 using the Cheng-Prusoff equation.

Chain of Recombinant human soluble BACE1 catalytic domain (P56817 75-416): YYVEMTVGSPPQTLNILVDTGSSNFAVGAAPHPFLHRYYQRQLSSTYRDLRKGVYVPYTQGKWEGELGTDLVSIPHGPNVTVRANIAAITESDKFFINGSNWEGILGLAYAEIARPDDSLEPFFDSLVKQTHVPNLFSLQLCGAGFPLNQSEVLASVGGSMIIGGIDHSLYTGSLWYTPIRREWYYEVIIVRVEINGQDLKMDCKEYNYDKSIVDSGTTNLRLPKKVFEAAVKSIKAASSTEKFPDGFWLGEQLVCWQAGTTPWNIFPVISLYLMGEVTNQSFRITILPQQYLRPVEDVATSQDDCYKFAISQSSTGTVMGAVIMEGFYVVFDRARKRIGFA
Chain of purified human autoBACE-2 (Q9Y5Z0 63-473 limits assumed): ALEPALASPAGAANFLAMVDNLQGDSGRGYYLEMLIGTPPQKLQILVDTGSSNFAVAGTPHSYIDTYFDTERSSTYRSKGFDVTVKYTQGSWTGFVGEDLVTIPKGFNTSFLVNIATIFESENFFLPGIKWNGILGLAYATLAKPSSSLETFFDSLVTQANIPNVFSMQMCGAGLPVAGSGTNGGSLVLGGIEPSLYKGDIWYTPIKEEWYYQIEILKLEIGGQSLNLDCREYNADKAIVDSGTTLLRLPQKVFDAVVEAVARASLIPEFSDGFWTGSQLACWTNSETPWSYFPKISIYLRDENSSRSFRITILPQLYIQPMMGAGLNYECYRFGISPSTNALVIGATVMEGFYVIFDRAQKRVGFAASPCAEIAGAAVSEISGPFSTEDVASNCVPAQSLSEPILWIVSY

Row | Compound | Ki [1] [nM] | Ki [2] [nM]
1 | CN1C(=N)N[C@@]2(c3cc(OCC(F)F)ccc3F)CO[C@@H](C3CC3)C[C@H]2C1=O [Example 46, (4aR,6R,8aS)-6-cyclopropyl-8a-(5-(2,2-difluoroethoxy)-2-fluorophenyl)-2-imino-3-methylhexahydro-1H-pyrano[3,4-d]pyrimidin-4(4aH)-one] | 40 | 41
2 | COc1cc([C@]23CO[C@@H](C)C[C@H]2C(=O)N(C)C(=N)N3)c(F)cn1 [Example 91, (4aR,6S,8aS)-8a-(5-fluoro-2-methoxypyridin-4-yl)-2-imino-3,6-dimethylhexahydro-1H-pyrano[3,4-d]pyrimidin-4(4aH)-one] | 468 | 155
3 | Cc1cncc(Oc2ccc(F)c([C@]34CO[C@@H](C)C[C@H]3C(=O)N(C)C(=N)N4)c2)n1 [Example 67, (4aR,6S,8aS)-8a-(2-fluoro-5-((6-methylpyrazin-2-yl)oxy)phenyl)-2-imino-3,6-dimethylhexahydro-1H-pyrano[3,4-d]pyrimidin-4(4aH)-one] | 13.3 | 25.2
4 | C[C@H]1C[C@H]2C(=O)N(C)C(=N)N[C@@]2(c2cc(Oc3cnccn3)ccc2F)CO1 [Example 66, (4aR,6S,8aS)-8a-(2-fluoro-5-(pyrazin-2-yloxy)phenyl)-2-imino-3,6-dimethylhexahydro-1H-pyrano[3,4-d]pyrimidin-4(4aH)-one] | 11.8 | 30.3
5 | CN1C(=N)N[C@@]2(c3cc(Oc4cccc(-n5cccn5)n4)ccc3F)CO[C@@H](C3CC3)C[C@H]2C1=O [Example 34, (4aR,6R,8aS)-8a-(5-((6-(1H-pyrazol-1-yl)pyridin-2-yl)oxy)-2-fluorophenyl)-6-cyclopropyl-2-imino-3-methylhexahydro-1H-pyrano[3,4-d]pyrimidin-4(4aH)-one] | 2.2 | 13.5
6 | C[C@H]1C[C@H]2C(=O)N(C)C(=N)N[C@@]2(c2cc(Oc3cc(C#N)ccn3)ccc2F)CO1 [Example 21, 2-(4-fluoro-3-((4aR,6S,8aS)-2-imino-3,6-dimethyl-4-oxohexahydro-1H-pyrano[3,4-d]pyrimidin-8a(8H)-yl)phenoxy)isonicotinonitrile] | 6 | 6
7 | CN1C(=N)N[C@@]2(c3cc(OCC(F)(F)F)ccc3F)CO[C@@H](C3CC3)C[C@H]2C1=O [Example 55, (4aR,6R,8aS)-6-cyclopropyl-8a-(2-fluoro-5-(2,2,2-trifluoroethoxy)phenyl)-2-imino-3-methylhexahydro-1H-pyrano[3,4-d]pyrimidin-4(4aH)-one] | 636 | 4610
8 | CN1C(=N)N[C@@]2(c3cc(-c4cncnc4)ccc3F)CO[C@@H](C3CC3)C[C@H]2C1=O [Example 28, (4aR,6R,8aS)-6-cyclopropyl-8a-(2-fluoro-5-(pyrimidin-5-yl)phenyl)-2-imino-3-methylhexahydro-1H-pyrano[3,4-d]pyrimidin-4(4aH)-one] | 136 | 627
9 | COc1ccnc(Oc2ccc(F)c([C@]34CO[C@@H](C)C[C@H]3C(=O)N(C)C(=N)N4)c2)c1 [Example 71, (4aR,6S,8aS)-8a-(2-fluoro-5-((4-methoxypyridin-2-yl)oxy)phenyl)-2-imino-3,6-dimethylhexahydro-1H-pyrano[3,4-d]pyrimidin-4(4aH)-one] | 39.9 | 15
10 | Cc1cncc(Oc2ccc(F)c([C@]34CO[C@@H](C5CC5)C[C@H]3C(=O)N(C)C(=N)N4)c2)n1 [Example 17, (4aR,6R,8aS)-6-cyclopropyl-8a-(2-fluoro-5-((6-methylpyrazin-2-yl)oxy)phenyl)-2-imino-3-methylhexahydro-1H-pyrano[3,4-d]pyrimidin-4(4aH)-one] | 12 | 102
11 | CN1C(=N)N[C@@]2(c3cc(Oc4ncccc4F)ccc3F)CO[C@@H](C3CC3)C[C@H]2C1=O [Example 15, (4aR,6R,8aS)-6-cyclopropyl-8a-(2-fluoro-5-((3-fluoropyridin-2-yl)oxy)phenyl)-2-imino-3-methylhexahydro-1H-pyrano[3,4-d]pyrimidin-4(4aH)-one] | 2 | 8
12 | C[C@H]1C[C@H]2C(=O)N(C)C(=N)N[C@@]2(c2cc(Oc3cc(F)ccc3F)ccc2F)CO1 [Example 82, (4aR,6S,8aS)-8a-(5-(2,5-difluorophenoxy)-2-fluorophenyl)-2-imino-3,6-dimethylhexahydro-1H-pyrano[3,4-d]pyrimidin-4(4aH)-one] | 45.7 | 23.5
13 | CN1C(=N)N[C@@]2(c3cc(Oc4cc(C#N)ccn4)ccc3F)CO[C@@H](C3CC3)C[C@H]2C1=O [Example 14, 2-(3-((4aR,6R,8aS)-6-cyclopropyl-2-imino-3-methyl-4-oxohexahydro-1H-pyrano[3,4-d]pyrimidin-8a(8H)-yl)-4-fluorophenoxy)isonicotinonitrile] | 2 | 13
14 | CN1C(=N)N[C@@]2(c3cc(Oc4ccnnc4)ccc3F)CO[C@@H](C3CC3)C[C@H]2C1=O [Example 41, (4aR,6R,8aS)-6-cyclopropyl-8a-(2-fluoro-5-(pyridazin-4-yloxy)phenyl)-2-imino-3-methylhexahydro-1H-pyrano[3,4-d]pyrimidin-4(4aH)-one] | 106 | 65
15 | (4aR,6S,8aS)-8a-(5-((4-chloropyridin-3-yl)oxy)-2-fluorophenyl)-2-imino-3,6-dimethylhexahydro-1H-pyrano[3,4-d]pyrimidin-4(4aH)-one [Example 75] | 58.2 | 23.3
16 | CN1C(=N)N[C@@]2(c3cc(Oc4cc(-n5cccn5)ccn4)ccc3F)CO[C@@H](C3CC3)C[C@H]2C1=O [Example 56, (4aR,6R,8aS)-8a-(5-((4-(1H-pyrazol-1-yl)pyridin-2-yl)oxy)-2-fluorophenyl)-6-cyclopropyl-2-imino-3-methylhexahydro-1H-pyrano[3,4-d]pyrimidin-4(4aH)-one] | 9 | 51
17 | C[C@H]1C[C@H]2C(=O)N(C)C(=N)N[C@@]2(c2cc(Oc3cc(C#N)ccn3)c(F)cc2F)CO1 [Example 9, 2-(2,4-difluoro-5-((4aR,6S,8aS)-2-imino-3,6-dimethyl-4-oxohexahydro-1H-pyrano[3,4-d]pyrimidin-8a(8H)-yl)phenoxy)isonicotinonitrile] | 2 | 4
18 | CN1C(=N)N[C@@]2(c3cc(OCC4CC4)ccc3F)CO[C@@H](C3CC3)C[C@H]2C1=O [Example 24, (4aR,6R,8aS)-6-cyclopropyl-8a-(5-(cyclopropylmethoxy)-2-fluorophenyl)-2-imino-3-methylhexahydro-1H-pyrano[3,4-d]pyrimidin-4(4aH)-one] | 11 | 10
19 | C[C@H]1C[C@H]2C(=O)N(C)C(=N)N[C@@]2(c2cc(Oc3ncncc3F)ccc2F)CO1 [Example 69, (4aR,6S,8aS)-8a-(2-fluoro-5-((5-fluoropyrimidin-4-yl)oxy)phenyl)-2-imino-3,6-dimethylhexahydro-1H-pyrano[3,4-d]pyrimidin-4(4aH)-one] | 11 | 6.78
20 | C[C@H]1C[C@H]2C(=O)N(C)C(=N)N[C@@]2(c2cc(Oc3cccnc3)ccc2F)CO1 [Example 81, (4aR,6S,8aS)-8a-(2-fluoro-5-(pyridin-3-yloxy)phenyl)-2-imino-3,6-dimethylhexahydro-1H-pyrano[3,4-d]pyrimidin-4(4aH)-one] | 26.8 | 20.7
21 | C[C@H]1C[C@H]2C(=O)N(C)C(=N)N[C@@]2(c2cc(Oc3cc(F)cnc3F)ccc2F)CO1 [Example 80, (4aR,6S,8aS)-8a-(5-((2,5-difluoropyridin-3-yl)oxy)-2-fluorophenyl)-2-imino-3,6-dimethylhexahydro-1H-pyrano[3,4-d]pyrimidin-4(4aH)-one] | 8.5 | 22.3
22 | COC[C@H]1C[C@H]2C(=O)N(C)C(=N)N[C@@]2(c2cc(OCC3CC3)ccc2F)CO1 [Example 32, (4aR,6R,8aS)-8a-(5-(cyclopropylmethoxy)-2-fluorophenyl)-2-imino-6-(methoxymethyl)-3-methylhexahydro-1H-pyrano[3,4-d]pyrimidin-4(4aH)-one] | 21 | 9
